Measurements published in US9445590B2, “Fungicidal composition comprising a pyridylethylbenzamide derivative and a compound capable of inhibiting the transport of electrons of the respiratory chain in phytopathogenic fungal organisms” (BAYER INTELLECTUAL PROPERTY GMBH, priority 2004, dated 2016).

Tests used:
[1] = system: Pyrenophora teres; test: Efficacy against Pyrenophora teres on barley plants (preventive spray); format: in vivo; details: 288 h, grading 12 days after contamination
Procedure: (§1) The active ingredients tested are prepared by potter homogenisation in a mixture of acetone/tween/water. This suspension is then diluted with water to obtain the desired active material concentration.
(§2) Barley plants (Express variety) in starter cups, sown on a 50/50 peat soil-pozzolana substrate and grown at 12° C., are treated at the 1-leaf stage (10 cm tall) by spraying with the aqueous suspension described above. Plants, used as controls, are treated with an aqueous solution not containing the active material.
After 24 hours, the plants are contaminated by spraying them with an aqueous suspension of Pyrenophora teres spores (12 000 spores per ml). The spores are collected from a 12-day-old culture. The contaminated barley plants are incubated for 24 hours at about 20° C. and at 100% relative humidity, and then for 12 days at 80% relative humidity.
Grading (% of efficacy) is carried out 12 days after the contamination, in comparison with the control plants.

[2] = system: Alternaria brassicae; test: Efficacy against Alternaria brassicae (in vitro), growth on PDA medium; format: cell-based; details: Alternaria brassicae, 336 h, radial growth after 14 days
Procedure: The growth of Alternaria brassicae was followed on PDA medium containing the compounds alone or in mixtures. The PDA medium is prepared by mixing 39 grams of PDA (Merck) in 1 litter of demineralised water. The medium is sterilized by autoclave 15 minutes at 121° C. The compounds are dissolved in acetone and added to the medium before pouring it in Petri dishes. After medium drying, the fungus is inoculated on the medium and allowed to growth at 19° C. The percentage of efficacy is noted after 14 days of growth (measurement of the radial growth) of the fungus in comparison with a control. […]

[3] = system: Erysiphe graminis f. sp. tritici; test: Efficacy against Erysiphe graminis f. sp. tritici on wheat plants (preventive spray); format: in vivo; details: Blumeria graminis, grading 7 to 14 days after contamination
Procedure: as §1
Wheat plants (Audace variety) in starter cups, sown on 50/50 peat soil-pozzolana substrate and grown at 12° C., are treated at the 1-leaf stage (10 cm tall) by spraying with the aqueous suspension described above.
(§3) Plants, used as controls, are treated with an aqueous solution not containing the active material.
After 24 hours, the plants are contaminated by dusting them with Erysiphe graminis f. sp. tritici spores, the dusting being carried out using diseased plants.
Grading is carried out 7 to 14 days after the contamination, in comparison with the control plants.
(§4) The formulated compounds are diluted with water to obtain the desired active material concentration.
as §2, with “Wheat” for “Barley”, “(Audace” for “(Express”, “on” for “on a”

[4] = system: Botrytis cinerea; test: Efficacy against Botrytis cinerea on gherkin plants (preventive spray); format: in vivo; details: Botrytis cinerea, grading 5 to 7 days after contamination
Procedure: as §1
as §2, with “Gherkin” for “Barley”, “(Petit vert de Paris” for “(Express”, “18-20°” for “12°”, “cotyledon Z11” for “1-leaf”, “stage” for “stage (10 cm tall)”
After 24 hours, the plants are contaminated by depositing drops of an aqueous suspension of Botrytis cinerea spores (150,000 spores per ml) on upper surface of the leaves. The spores are collected from a 15-day-old culture and are suspended in a nutrient solution composed of: • 20 g/L of gelatine • 50 g/L of cane sugar • 2 g/L of NH4NO3 • 1 g/L of KH2PO4
The contaminated gherkin plants are settled for 5/7 days in a climatic room at 15-11° C. (day/night) and at 80% relative humidity. Grading is carried out 5 to 7 days after contamination, in comparison with the control plants.
as §2, with “Gherkin” for “Barley”, “(Petit vert de Paris” for “(Express”, “18-20°” for “12°”, “cotyledon Z 11” for “1-leaf”, “stage” for “stage (10 cm tall)”
as §4

[5] = system: Sphaerotheca fuliginea; test: Efficacy against Sphaerotheca fuliginea on gherkin plants (preventive spray); format: in vivo; details: Podosphaera fuliginea, 504 h, grading 21 days after contamination
Procedure: as §1
as §2, with “Gherkin” for “Barley”, “(Vert petit de Paris” for “(Express”, “20° C./23°” for “12°”, “2-leaves” for “1-leaf”, “stage” for “stage (10 cm tall)”
After 24 hours, the plants are contaminated by spraying them with an aqueous suspension of Sphaerotheca fuliginea spores (100 000 spores per ml). The spores are collected from a contaminated plants. The contaminated gherkin plants are incubated at about 20° C./25° C. and at 60/70% relative humidity.
Grading (% of efficacy) is carried out 21 days after the contamination, in comparison with the control plants.

[6] = system: Alternaria brassicae; test: Efficacy against Alternaria brassicae on radish plants (preventive spray); format: in vivo; details: Example 13, dose 4 ppm, grading 6 to 7 days after contamination
Procedure: as §4
Radish plants (Pernot variety) in starter cups, sown on a 50/50 peat soil-pozzolana substrate and grown at 18-20° C., are treated at the cotyledon stage by spraying with the aqueous suspension described above.
as §3
After 24 hours, the plants are contaminated by spraying them with an aqueous suspension of Alternaria brassicae spores (40,000 spores per cm^3). The spores are collected from a 12-13-day-old culture.
The contaminated radish plants are incubated for 6-7 days at about 18° C., under a humid atmosphere.
Grading is carried out 6 to 7 days after the contamination, in comparison with the control plants.

O=C(NCCc1ncc(C(F)(F)F)cc1Cl)c1ccccc1C(F)(F)F [Compound 1, N-{2-[3-chloro-5-(trifluoromethyl)-2-pyridinyl]ethyl}-2-trifluoromethylbenzamide]
Emax at 4 g/ha ([1]; Example 1, dose 4 g/ha): 20% | Emax at 8 g/ha ([1]; Example 1, dose 8 g/ha): 50% | Emax at 0.025 ppm ([2]; Example 2, dose 0.025 ppm): 34% | Emax at 0.05 ppm ([2]; Example 2, dose 0.05 ppm): 45% | Emax at 0.1 ppm ([2]; Example 2, dose 0.1 ppm): 53% | Emax at 0.25 ppm ([2]; Example 2, dose 0.25 ppm): 76% | Emax at 0.5 ppm ([2]; Example 2, dose 0.5 ppm): 90% | Emax at 125 ppm ([3]; Example 4, dose 125 ppm): 20% | Emax at 250 g/ha ([3]; Example 9, dose 250 g/ha, formulated compounds): 50% | Emax at 37 ppm ([4]; Example 5, dose 37 ppm): 0% | Emax at 111 ppm ([4]; Example 5, dose 111 ppm): 60% | Emax at 333 ppm ([4]; Example 5, dose 333 ppm): 90% | Emax at 37 ppm ([4]; Example 6, dose 37 ppm): 0% | Emax at 111 ppm ([4]; Example 6, dose 111 ppm): 60% | Emax at 333 ppm ([4]; Example 6, dose 333 ppm): 100% | Emax at 12 ppm ([4]; Example 7, dose 12 ppm): 0% | Emax at 37 ppm ([4]; Example 7, dose 37 ppm): 40% | Emax at 111 ppm ([4]; Example 7, dose 111 ppm): 92% | Emax at 37 ppm ([4]; Example 8, dose 37 ppm): 3% | Emax at 111 ppm ([4]; Example 8, dose 111 ppm): 58% | Emax at 333 ppm ([4]; Example 8, dose 333 ppm): 75% | Emax at 37 ppm ([4]; Example 10, dose 37 ppm): 72% | Emax at 31.2 ppm ([4]; Example 14, dose 31.2 ppm, formulated compounds): 20% | Emax at 62.5 ppm ([4]; Example 14, dose 62.5 ppm, formulated compounds): 40% | Emax at 4 ppm ([5]; Example 11, dose 4 ppm): 10% | Emax at 8 ppm ([5]; Example 11, dose 8 ppm): 15% | Emax at 15 ppm ([5]; Example 11, dose 15 ppm): 25% | Emax at 7.8 ppm ([5]; Example 12, dose 7.8 ppm): 10% | Emax at 15.6 ppm ([5]; Example 12, dose 15.6 ppm): 18% | Emax at 31.2 ppm ([5]; Example 12, dose 31.2 ppm): 86% | Emax at 4 ppm [6]: 40%
